Twelve compounds from patent US6413935B1, “Induction of immune response against desired determinants” (priority 1993, dated 2002) can be followed below.

pIC50: −log10 of the molar value. Where “and” joins values, the source holds several entries; their conditions need not be identical. Identical values can stand only once. Like-named read-outs stand apart in the source and are kept apart here. Non-standard residues stand in square brackets, D forms with d. Residues, ends and D or L forms follow the SMILES beside them. Cha = N[C@@H](CC1CCCCC1)C(=O)O

Assay [1] concerns the target T1, IA^s (Mus musculus, UniProt P06345+P14437).
T1 construct: Various cell lines were used as sources of purified human and mouse class II molecules; endogenous in cells; host or cells: LS102.9
T1 sequence (P14437 1-233): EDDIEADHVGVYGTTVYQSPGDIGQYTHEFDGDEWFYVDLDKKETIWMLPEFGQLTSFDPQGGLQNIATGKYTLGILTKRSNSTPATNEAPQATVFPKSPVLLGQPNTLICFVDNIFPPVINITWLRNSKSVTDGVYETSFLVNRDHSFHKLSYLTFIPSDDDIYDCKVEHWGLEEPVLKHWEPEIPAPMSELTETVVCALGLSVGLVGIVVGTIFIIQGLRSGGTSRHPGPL
T1 sequence (P06345 28-263): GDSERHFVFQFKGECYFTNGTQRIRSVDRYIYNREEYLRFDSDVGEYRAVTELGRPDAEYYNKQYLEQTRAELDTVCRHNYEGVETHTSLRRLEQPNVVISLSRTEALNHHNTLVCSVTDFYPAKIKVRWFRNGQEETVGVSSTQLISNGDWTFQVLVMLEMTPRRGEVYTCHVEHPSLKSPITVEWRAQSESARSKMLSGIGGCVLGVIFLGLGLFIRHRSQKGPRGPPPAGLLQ
In words: biochemical. The following applies: Table III; read-out: Capacity to bind purified IA^s, IC50. The assay is classed as binding.

For assay [2], the target named is T2, IE^d (Mus musculus, UniProt P01904+P01915).
T2 construct: Various cell lines were used as sources of purified human and mouse class II molecules; endogenous in cells; host or cells: A20
T2 sequence (P01904 26-255): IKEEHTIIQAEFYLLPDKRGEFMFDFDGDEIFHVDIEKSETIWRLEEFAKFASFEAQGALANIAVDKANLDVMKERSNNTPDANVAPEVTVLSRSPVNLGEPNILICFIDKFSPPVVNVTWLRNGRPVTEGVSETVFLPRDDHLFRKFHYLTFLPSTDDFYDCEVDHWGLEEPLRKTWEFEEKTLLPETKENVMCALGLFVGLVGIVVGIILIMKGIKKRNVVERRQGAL
T2 sequence (P01915 27-264 limits assumed): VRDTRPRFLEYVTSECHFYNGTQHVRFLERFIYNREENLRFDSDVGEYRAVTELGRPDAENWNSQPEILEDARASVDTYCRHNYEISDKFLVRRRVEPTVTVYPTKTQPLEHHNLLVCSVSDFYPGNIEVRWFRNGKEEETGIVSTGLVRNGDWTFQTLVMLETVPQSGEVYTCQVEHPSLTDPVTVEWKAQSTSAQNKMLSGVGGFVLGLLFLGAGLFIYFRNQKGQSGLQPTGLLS
Nature of the assay: biochemical. It counts as binding. The settings on record: Table III; read-out: Capacity to bind purified IE^d, IC50.

Assay [3] deals with T3, IA^k (Mus musculus, UniProt P01910+P06343).
T3 construct: Various cell lines were used as sources of purified human and mouse class II molecules; endogenous in cells; host or cells: CH12
T3 sequence (P01910 24-256): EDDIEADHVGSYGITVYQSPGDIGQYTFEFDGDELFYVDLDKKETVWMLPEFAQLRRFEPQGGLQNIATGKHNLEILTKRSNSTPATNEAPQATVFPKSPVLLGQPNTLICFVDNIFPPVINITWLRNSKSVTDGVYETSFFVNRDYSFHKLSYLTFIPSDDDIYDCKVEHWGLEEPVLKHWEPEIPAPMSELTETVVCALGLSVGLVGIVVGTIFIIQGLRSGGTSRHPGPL
T3 sequence (P06343 28-263): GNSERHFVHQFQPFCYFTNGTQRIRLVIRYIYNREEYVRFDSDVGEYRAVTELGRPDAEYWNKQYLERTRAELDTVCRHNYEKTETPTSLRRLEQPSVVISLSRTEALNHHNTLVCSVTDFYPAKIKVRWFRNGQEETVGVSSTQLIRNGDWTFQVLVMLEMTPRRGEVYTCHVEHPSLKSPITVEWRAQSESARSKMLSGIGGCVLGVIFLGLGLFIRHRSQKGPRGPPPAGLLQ
Nature of the assay: biochemical. The assay is classed as binding. The following applies: Table III; read-out: Capacity to bind purified IA^k, IC50.

Assay [4] has as its system DR7. The settings on record: read-out: PADRE Class II Binding Affinities DR7.
In assay [5] the test system is DR5. The following applies: read-out: PADRE Class II Binding Affinities DR5.
Assay [6] has as its system DQ3.1. The following applies: read-out: PADRE Class II Binding Affinities; Table VIII A.
In assay [7] the target is DR2w2a (Homo sapiens, UniProt P01903+Q30154). Nature of the assay: biochemical. The following applies: PADRE Class II Binding Affinities DR2w282, Table IX.
Sequence of DR2w2a (P01903 26-254): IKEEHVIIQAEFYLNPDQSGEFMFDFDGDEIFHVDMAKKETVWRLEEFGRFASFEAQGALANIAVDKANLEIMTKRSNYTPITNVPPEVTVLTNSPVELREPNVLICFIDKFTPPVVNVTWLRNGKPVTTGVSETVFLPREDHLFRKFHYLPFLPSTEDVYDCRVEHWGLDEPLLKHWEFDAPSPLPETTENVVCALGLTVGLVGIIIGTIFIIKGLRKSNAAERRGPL
Sequence of DR2w2a (Q30154 30-266): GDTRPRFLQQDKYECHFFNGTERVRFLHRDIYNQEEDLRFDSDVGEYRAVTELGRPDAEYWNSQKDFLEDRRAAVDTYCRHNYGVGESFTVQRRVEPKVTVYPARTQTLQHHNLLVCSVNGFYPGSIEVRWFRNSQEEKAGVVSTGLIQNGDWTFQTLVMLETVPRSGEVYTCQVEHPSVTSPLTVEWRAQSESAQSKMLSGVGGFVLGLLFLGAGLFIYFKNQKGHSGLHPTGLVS
Assay [8] deals with DR4w4 (Homo sapiens, UniProt P01903+P01911, A100K/A169T/F76Y/I96L/K127E/L162R/M171V/N62H/P40V/Q125Y/R42H/S133A/S149N/S66Y/V115G/V209L/W38E). Nature of the assay: biochemical. The settings on record: PADRE Class II Binding Affinities DR4w4, Table IX.
Assay [9] addresses DR1 (Homo sapiens, UniProt P01903+P01911, A100R/D57E/F55L/F60I/F76Y/I96L/L162R/M171V/P40L/Q125E/R42F/V115G/Y59C). In words: biochemical. The following applies: PADRE Class II Binding Affinities DR1, Table IX.
Assay [10] deals with human PBMC T cell lines. The assay is classed as cell-based.

Turning to `CC[C@H](C)[C@H](N)C(=O)N[C@@H](CO)C(=O)N[C@@H](CCC(N)=O)C(=O)N[C@@H](C)C(=O)N[C@H](C(=O)N[C@@H](Cc1c[nH]cn1)C(=O)N[C@@H](C)C(=O)N[C@@H](C)C(=O)N[C@@H](Cc1c[nH]cn1)C(=O)N[C@@H](C)C(=O)N[C@@H](CCC(=O)O)C(=O)N[C@H](C(=O)N[C@@H](CC(N)=O)C(=O)N[C@@H](CCC(=O)O)C(=O)O)[C@@H](C)CC)C(C)C` [Ova 323-336, ISQAVHAAHAEINE], the pIC50 is 5.98 in [1], less than 5.00 in assay [2] and 6.00 in assay [3].
In the case of `CC(C)C[C@H](NC(=O)[C@@H](NC(=O)[C@H](C)NC(=O)[C@H](C)NC(=O)[C@H](C)NC(=O)[C@H](C)NC(=O)[C@H](CC1CCCCC1)NC(=O)[C@H](C)NC(=O)[C@@H](C)N)[C@@H](C)O)C(=O)N[C@@H](CCCCN)C(=O)N[C@@H](C)C(=O)N[C@@H](CCC(N)=O)C(=O)N[C@H](C)C(N)=O` [Peptide 906.48] (H-[dA]A[Cha]AAAATLKAQ[dA]-NH2; N-terminus and C-terminus assumed), the results for the pIC50 in assay [4] (Table VIII A), in assay [5] (Table VIII A) and in assay [6] were 7.02, 7.70 and 7.74, respectively.
The like results for `CC(C)C[C@H](NC(=O)[C@@H](NC(=O)[C@H](C)NC(=O)[C@H](C)NC(=O)[C@H](C)NC(=O)[C@H](C)NC(=O)[C@H](CC1CCCCC1)NC(=O)[C@H](C)NC(=O)[C@@H](C)N)[C@@H](C)O)C(=O)N[C@@H](CCCCN)C(=O)N[C@@H](C)C(=O)N[C@H](C(=O)N[C@H](C)C(N)=O)C(C)C` [Peptide 906.49] (H-[dA]A[Cha]AAAATLKAV[dA]-NH2; N-terminus and C-terminus assumed) were, in that order, 7.55, 8.35 and 7.84.
On to `CC(C)C[C@H](NC(=O)[C@@H](NC(=O)[C@H](CC(N)=O)NC(=O)[C@H](C)NC(=O)[C@H](CCCNC(=N)N)NC(=O)[C@@H](NC(=O)[C@H](CC1CCCCC1)NC(=O)[C@H](CCCNC(=N)N)NC(=O)[C@@H](C)N)C(C)C)[C@@H](C)O)C(=O)N[C@@H](CCCCN)C(=O)N[C@@H](C)C(=O)N[C@@H](C)C(=O)N[C@H](C)C(N)=O` [Peptide 965.06], for which the pIC50 in assay [7] is 8.19; in assay [4] (Table IX) it was 7.13; in assay [5] (Table IX) it was 8.25; in [8], 8.89; in [9], 9.10.
`CC(C)C[C@H](NC(=O)[C@@H](NC(=O)[C@H](CCCCN)NC(=O)[C@H](C)NC(=O)[C@H](C)NC(=O)[C@@H](NC(=O)[C@H](CC1CCCCC1)NC(=O)[C@H](CCCCN)NC(=O)[C@@H](C)N)C(C)C)[C@@H](C)O)C(=O)N[C@@H](CCCCN)C(=O)N[C@@H](C)C(=O)N[C@@H](C)C(=O)N[C@H](C)C(N)=O` [Peptide 965.14]: in assay [5] (Table IX), the pIC50 is 7.46. Also, in assay [10], the “Donors with significant (>10,000 cpm) T cell response / donors tested, second stimulation” value is reported as 1/5 and the “Donors with significant (>10,000 cpm) T cell response / donors tested, third stimulation” value is reported as 3/5.
Turning to `CC(C)C[C@H](NC(=O)[C@@H](NC(=O)[C@H](C)NC(=O)[C@H](C)NC(=O)[C@H](C)NC(=O)[C@@H](NC(=O)[C@H](CC1CCCCC1)NC(=O)[C@H](CCCCN)NC(=O)[C@@H](C)N)C(C)C)[C@@H](C)O)C(=O)N[C@@H](CCCCN)C(=O)N[C@@H](C)C(=O)N[C@@H](C)C(=O)N[C@H](C)C(N)=O` [Peptide 965.16], in [10], the “Donors with significant (>10,000 cpm) T cell response / donors tested, second stimulation” value is reported as 0/5 and the “Donors with significant (>10,000 cpm) T cell response / donors tested, third stimulation” value is on record as 1/5.
In turn, `CSCC[C@H](NC(=O)[C@@H](NC(=O)[C@H](CC1CCCCC1)NC(=O)[C@H](CCCCN)NC(=O)[C@@H](C)NC(=O)[C@H](CO)NC(=O)[C@H](CO)NC(=O)[C@@H](N)CCCCN)C(C)C)C(=O)N[C@@H](C)C(=O)N[C@@H](C)C(=O)N[C@H](C(=O)N[C@@H](CC(C)C)C(=O)N[C@@H](CCCCN)C(=O)N[C@@H](C)C(=O)N[C@@H](C)C(=O)N[C@H](C)C(N)=O)[C@@H](C)O` [Peptide 965.19] showed a pIC50 in assay [7] of 7.63.
For the compound `CC(C)C[C@H](NC(=O)[C@@H](NC(=O)[C@H](Cc1c[nH]c2ccccc12)NC(=O)[C@H](C)NC(=O)[C@H](CCCCN)NC(=O)[C@@H](NC(=O)[C@H](CC1CCCCC1)NC(=O)[C@H](CCCCN)NC(=O)[C@@H](C)N)C(C)C)[C@@H](C)O)C(=O)N[C@@H](CCCCN)C(=O)N[C@@H](C)C(=O)N[C@@H](C)C(=O)N[C@H](C)C(N)=O` [Peptide 965.021], the pIC50 was 8.24 and 8.05 in [7]; 7.05 in assay [4] (Table IX); 6.47 in assay [4] (Table IX, listed as 965.022); 8.39 in assay [5] (Table IX); 8.96 in assay [5] (Table IX, listed as 965.022); 9.10 and 9.15 in assay [9].
In the case of `CC(C)C[C@H](NC(=O)[C@@H](NC(=O)[C@H](Cc1ccc(O)cc1)NC(=O)[C@H](C)NC(=O)[C@H](Cc1c[nH]c2ccccc12)NC(=O)[C@@H](NC(=O)[C@H](CC1CCCCC1)NC(=O)[C@H](CCCCN)NC(=O)[C@@H](C)N)C(C)C)[C@@H](C)O)C(=O)N[C@@H](CCCCN)C(=O)N[C@@H](C)C(=O)N[C@@H](C)C(=O)N[C@H](C)C(N)=O` [Peptide 965.041], the pIC50 was 8.60 in assay [7], 8.33 in assay [5] (Table IX), 9.30 in assay [8] and 9.30 in assay [9].
As to `CC(C)C[C@H](NC(=O)[C@@H](NC(=O)[C@@H](NC(=O)[C@H](C)NC(=O)[C@H](Cc1c[nH]c2ccccc12)NC(=O)[C@@H](NC(=O)[C@H](CC1CCCCC1)NC(=O)[C@H](CCCCN)NC(=O)[C@@H](C)N)C(C)C)C(C)C)[C@@H](C)O)C(=O)N[C@@H](CCCCN)C(=O)N[C@@H](C)C(=O)N[C@@H](C)C(=O)N[C@H](C)C(N)=O` [Peptide 965.042], the pIC50 in [7] is 8.02; in assay [8] it was 9.00; in assay [9] it was 9.70.
Turning to `CC(C)C[C@H](NC(=O)[C@@H](NC(=O)[C@H](Cc1c[nH]c2ccccc12)NC(=O)[C@H](C)NC(=O)[C@H](Cc1ccc(O)cc1)NC(=O)[C@@H](NC(=O)[C@H](CC1CCCCC1)NC(=O)[C@H](CCCCN)NC(=O)[C@@H](C)N)C(C)C)[C@@H](C)O)C(=O)N[C@@H](CCCCN)C(=O)N[C@@H](C)C(=O)N[C@@H](C)C(=O)N[C@H](C)C(N)=O` [Peptide 965.051], the pIC50 in assay [7] is 8.15 and 8.05; in [4] (Table IX, listed as 965.052), 7.59; in [5] (Table IX), 8.24; in [5] (Table IX, listed as 965.052) it was 8.16; in assay [8] it was 9.52 and 9.10; in assay [9] it was 9.30 and 9.15.
With `CC(C)C[C@H](NC(=O)[C@@H](NC(=O)[C@H](CC(N)=O)NC(=O)[C@H](C)NC(=O)[C@H](C)NC(=O)[C@@H](NC(=O)[C@H](CC1CCCCC1)NC(=O)[C@H](CCCCN)NC(=O)[C@@H](C)N)C(C)C)[C@@H](C)O)C(=O)N[C@@H](CCCCN)C(=O)N[C@@H](C)C(=O)N[C@@H](C)C(=O)N[C@H](C)C(N)=O` [Peptide 965.081], the pIC50 in assay [5] (Table IX, listed as 965.082) is 7.90. Moreover, in [10], the “Donors with significant (>10,000 cpm) T cell response / donors tested, second stimulation” value is given as 1/5 and the “Donors with significant (>10,000 cpm) T cell response / donors tested, third stimulation” value is recorded as 2/5.
